# Measured values reported in US9061026B2, “Oligomer-diarylpiperazine conjugates” (priority 2008, dated 2015).
# Where two headings read alike, the source gives them in different places.
# Legend:
# [1] = target: Opiate Receptor, μ (OP3, MOP) (Homo sapiens, UniProt P35372); test: Radioligand competition binding, Opiate Receptor, μ (OP3, MOP), [3H]-diprenorphine, CHO-K1 cells
# [2] = target: T1, Opiate Receptor, kappa (OP2, KOP) (Homo sapiens, UniProt P41145); test: biochemical; type: binding
# T1 construct: expressed in transfected cells; host or cells: HEK-293 cells, membrane preparation
# T1 sequence (P41145 whole entry): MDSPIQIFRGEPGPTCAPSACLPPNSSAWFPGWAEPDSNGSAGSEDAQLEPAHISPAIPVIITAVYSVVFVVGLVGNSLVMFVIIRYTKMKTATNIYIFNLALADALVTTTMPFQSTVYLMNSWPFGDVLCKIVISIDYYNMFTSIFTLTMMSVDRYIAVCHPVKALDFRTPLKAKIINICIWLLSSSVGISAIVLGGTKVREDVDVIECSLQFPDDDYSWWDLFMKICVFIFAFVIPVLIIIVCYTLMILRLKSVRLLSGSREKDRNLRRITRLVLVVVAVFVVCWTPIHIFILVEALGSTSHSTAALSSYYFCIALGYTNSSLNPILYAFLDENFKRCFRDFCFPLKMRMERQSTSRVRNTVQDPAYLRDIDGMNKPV
# [3] = target: Opiate Receptor, delta (OP1, DOP) (Homo sapiens, UniProt P41143); test: Radioligand competition binding, Opiate Receptor, delta (OP1, DOP), [3H]-naltrindole, CHO cells
# Opiate Receptor, delta (OP1, DOP), sequence (P41143 whole entry): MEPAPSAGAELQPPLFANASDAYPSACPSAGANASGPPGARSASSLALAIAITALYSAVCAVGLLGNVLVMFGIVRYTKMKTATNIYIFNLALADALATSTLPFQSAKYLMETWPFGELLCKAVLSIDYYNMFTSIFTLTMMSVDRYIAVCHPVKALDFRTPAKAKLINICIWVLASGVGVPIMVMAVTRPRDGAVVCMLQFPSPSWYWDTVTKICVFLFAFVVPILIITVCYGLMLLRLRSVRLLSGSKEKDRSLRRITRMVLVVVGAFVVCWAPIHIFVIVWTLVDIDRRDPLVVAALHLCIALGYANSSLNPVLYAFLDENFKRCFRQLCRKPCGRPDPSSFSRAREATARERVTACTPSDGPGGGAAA
# [4] = target: Opiate δ (Homo sapiens, UniProt P41143); test: Opiate δ receptor binding (Table 1); settings: for Ki: Table 1; for Fold change: Opiate δ Ki relative to ±BW373U86 (=1)
# Opiate δ, sequence (P41143 whole entry): as above
# [5] = target: Delta Opioid Receptor; test: Delta Opioid Receptor Binding, forebrain, representative data set; settings: radioligand [3H]Enkephalin, DPDPE, read-out: Kd (binding affinity)
# Description: Binding characteristics for various receptors including, but not limited to, delta, kappa, and mu opioid receptors are determined.
# Opiate Receptor, μ (OP3, MOP), sequence (P35372 whole entry): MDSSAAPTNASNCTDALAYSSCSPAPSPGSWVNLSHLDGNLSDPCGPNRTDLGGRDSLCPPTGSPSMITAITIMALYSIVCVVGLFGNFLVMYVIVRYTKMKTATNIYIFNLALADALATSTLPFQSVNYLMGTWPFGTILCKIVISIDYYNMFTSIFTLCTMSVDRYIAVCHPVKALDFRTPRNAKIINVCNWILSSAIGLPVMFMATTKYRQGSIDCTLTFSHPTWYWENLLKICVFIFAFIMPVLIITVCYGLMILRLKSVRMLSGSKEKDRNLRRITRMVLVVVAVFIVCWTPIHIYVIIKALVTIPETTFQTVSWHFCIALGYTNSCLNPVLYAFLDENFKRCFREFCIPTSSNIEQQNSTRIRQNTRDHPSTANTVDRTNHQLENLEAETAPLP
compound,measurement,setting,value
"Br.Br.C=CCN1CC(C)N(C(c2ccc(C(=O)N(CC)CC)cc2)c2cccc(O)c2)CC1C (racemic) [(+/−) BW373U86 dihydrobromide, reference compound]",nH,[1],0.92
same,IC50,[1]; read-out: IC50,659 nM
same,Ki,[1]; read-out: Ki,268 nM
same,nH,[2],0.92
same,IC50,[2]; read-out: IC50,556 nM
same,Ki,[2]; read-out: Ki,223 nM
same,IC50,[3]; read-out: IC50,3.26 nM
same,Ki,[3]; read-out: Ki,1.15 nM
"CCN(CC)C(=O)c1ccc([C@H](c2cccc(O)c2)N2C[C@@H](C)N(CCOCCOCCOC)C[C@@H]2C)cc1 (racemic) [mPEG3-N-(+/−)-BW373U86, (±)-4-[(αR)-α-((2S,5R)-4-methoxy(triethylene glycol)-2,5-dimethyl-1-piperazinyl)-3-hydroxybenzyl]-N,N-diethylbenzamide]",IC50,[1]; read-out: IC50,9370 nM
same,Ki,[1]; read-out: Ki,3810 nM
same,IC50,[3]; read-out: IC50,764 nM
same,Ki,[3]; read-out: Ki,269 nM
"C=CCN1C[C@H](C)N([C@H](c2ccc(C(=O)N(CC)CC)cc2)c2cccc(OCCOCCOCCOC)c2)C[C@H]1C (racemic) [mPEG-3 ± BW373U86, (±)-4-[(αR)-α-((2S,5R)-4-Allyl-2,5-dimethyl-1-piperazinyl)-3-O-methoxy(triethylene glycol)benzyl]-N,N-diethylbenzamid]",Ki,"[4]; read-out: Opiate δ, Ki",~415 nM
"C=CCN1C[C@H](C)N([C@H](c2ccc(C(=O)N(CC)CC)cc2)c2cccc(OCCOCCOCCOCCOCCOCCOCCOC)c2)C[C@H]1C (racemic) [mPEG-7 ± BW373U86, (±)-4-[(αR)-α-((2S,5R)-4-Allyl-2,5-dimethyl-1-piperazinyl)-3-O-methoxy(heptaethylene glycol)benzyl]-N,N-diethylbenzamid]",Fold change,[4],~298
same,Ki,"[4]; read-out: Opiate δ, Ki",~1330 nM
"C=CCN1C[C@H](C)N([C@H](c2ccc(C(=O)N(CC)CC)cc2)c2cccc(O)c2)C[C@H]1C (racemic) [±BW373U86, (±)-4-[(αR)-α-((2S,5R)-4-Allyl-2,5-dimethyl-1-piperazinyl)-3-hydroxbenzyl]-N,N-diethylbenzamide, reference compound]",Ki,"[4]; Opiate δ, Ki (nM)",0.36 nM
"C=CCN1C[C@H](C)N([C@H](c2ccc(C(=O)N(CC)CC)cc2)c2cccc(O)c2)C[C@H]1C [(+) BW373U86, (+)-4-[(αR)-α-((2S,5R)-4-Allyl-2,5-dimethyl-1-piperazinyl)-3-hydroxbenzyl]-N,N-diethylbenzamide, reference compound]",IC50,[1],309 nM
same,Ki,[1],126 nM
same,nH,[1],0.83
same,IC50,[2],223 nM
same,Ki,[2],89.2 nM
same,nH,[2],0.78
same,IC50,[3],1 nM
same,Ki,[3],0.354 nM
same,nH,[3],0.91
"CCN(CC)C(=O)c1ccc(C(c2cccc(O)c2)N2CCN(Cc3ccccc3)CC2)cc1 (centres unmarked) [N-benzyl-deallyl-demethyl-BW373U86, 4-[(4-Benzyl-1-piperazinyl)-3-hydroxbenzyl]-N,N-diethylbenzamid]",IC50,[1],2750 nM
same,Ki,[1],1110 nM
same,nH,[1],0.90
same,IC50,[2],2370 nM
same,Ki,[2],946 nM
same,nH,[2],0.95
same,IC50,[3],1.33 nM
same,Ki,[3],0.47 nM
same,nH,[3],0.99
"C=CCN1CCN(C(c2ccc(C(=O)N(CC)CC)cc2)c2cccc(O)c2)CC1 (centres unmarked) [demethyl-BW373U86, 4-[(4-Allyl-1-piperazinyl)-3-hydroxbenzyl]-N,N-diethylbenzamid]",nH,[1],1.02
same,IC50,[1]; read-out: IC50,11000 nM
same,Ki,[1]; read-out: Ki,4450 nM
same,nH,[2],0.87
same,IC50,[2]; read-out: IC50,1000 nM
same,Ki,[2]; read-out: Ki,401 nM
same,nH,[3],1.10
same,IC50,[3]; read-out: IC50,7.09 nM
same,Ki,[3]; read-out: Ki,2.5 nM
"CCN(CC)C(=O)c1ccc(C(c2cccc(OCCOCCOCCOC)c2)N2CCN(Cc3ccccc3)CC2)cc1 (centres unmarked) [mPEG3-N-benzyl-deallyl-demethyl-BW373U86, 4-[(4-Benzyl-1-piperazinyl)-3-O-methoxy(triethyleneglycol)benzyl]-N,N-diethylbenzamide]",IC50,[3],212 nM
same,Ki,[3],74.7 nM
same,nH,[3],1.50
"C=CCN1CCN(C(c2ccc(C(=O)N(CC)CC)cc2)c2cccc(OCCOCCOCCOC)c2)CC1 (centres unmarked) [mPEG3-demethyl-BW373U86, 4-[(4-Allyl-1-piperazinyl)-3-O-methoxy(triethyleneglycol)benzy]-N,N-diethylbenzamid]",IC50,[3]; read-out: IC50,6050 nM
same,Ki,[3]; read-out: Ki,2130 nM
"CCN(CC)C(=O)c1ccc(C(c2cccc(OCCOCCOCCOCCOCCOCCOCCOC)c2)N2CCN(Cc3ccccc3)CC2)cc1 (centres unmarked) [mPEG7-N-benzyl-deallyl-demethyl-BW373U86, 4-[(4-Benzyl-1-piperazinyl)-3-O-methoxy(heptaethyleneglycol)benzyl]-N,N-diethylbenzamid]",IC50,[3],106 nM
same,Ki,[3],37.4 nM
same,nH,[3],1.08
"C=CCN1CCN(C(c2ccc(C(=O)N(CC)CC)cc2)c2cccc(OCCOCCOCCOCCOCCOCCOCCOC)c2)CC1 (centres unmarked) [mPEG7-demethyl-BW373U86, 4-[(4-Allyl-1-piperazinyl)-3-O-methoxy(heptaethylene glycol)benzyl]-N,N-diethylbenzamide]",IC50,[3]; read-out: IC50,3470 nM
same,Ki,[3]; read-out: Ki,1220 nM
"C=CCN1C[C@H](C)N([C@H](c2ccc(C(=O)N(CC)CC)cc2)c2cccc(OCCOCCOCCOC)c2)C[C@H]1C [mPEG-3 + BW373U86, (+)-4-[(αR)-α-((2S,5R)-4-Allyl-2,5-dimethyl-1-piperazinyl)-3-O-methoxy(triethylene glycol)benzyl]-N,N-diethylbenzamid]",Ki,"[4]; read-out: Opiate δ, Ki",491 nM
same,IC50,[3]; read-out: IC50,723 nM
same,Ki,[3]; read-out: Ki,255 nM
"C=CCN1C[C@H](C)N([C@H](c2ccc(C(=O)N(CC)CC)cc2)c2cccc(OCCOCCOCCOCCOCCOCCOCCOC)c2)C[C@H]1C [mPEG-7 + BW373U86, (+)-4-[(αR)-α-((2S,5R)-4-Allyl-2,5-dimethyl-1-piperazinyl)-3-O-methoxy(heptaethylene glycol)benzyl]-N,N-diethylbenzamid]",Fold change,[4],242.7
same,Ki,"[4]; read-out: Opiate δ, Ki",864 nM
"DPDPE [[3H]Enkephalin, DPDPE]",Kd,[5],2.1 nM
